From US20170209445A1, “KINASE INHIBITORS” (Respivert Limited, priority 2014, published 2017)

What was measured:
PBMCs = assay: LPS-induced IL-8 release in PBMC cells; assay type: cell-based; conditions: Homo sapiens, LPS-stimulated PBMCs, read-out: IC50 Values for Inhibition of Cytokine Release PBMCs IL-8
Procedure: Peripheral blood mononuclear cells (PBMCs) from healthy subjects are separated from whole blood using a density gradient (Lymphoprep, Axis-Shield Healthcare). The PBMCs are seeded in 96 well plates and treated with compounds at the desired concentration for 2 hours before addition of 1 ng/mL LPS (Escherichia Coli 0111:B4 from Sigma Aldrich) for 24 hours under normal tissue culture conditions (37° C., 5% CO2). The supernatant is harvested for determination of IL-8 and TNFα concentrations by sandwich ELISA (Duo-set, R&D systems) and read on the fluorescence microplate reader (Varioskan® Flash, ThermoFisher Scientific).

Jurkat cells = assay: Cell cytotoxicity assay (Jurkat cell viability); assay type: cell-based, human; conditions: 24 hours
Procedure: 1×10^5 Jurkat cells (immortalised human T lymphocytes) are added to the appropriate number of wells of a 96 well plate in 100 μL of media (RPMI supplemented with 10% foetal bovine serum). 1 μL of DMSO control (final concentration 1.0% v/v) or test compound (final concentration 20, 5 or 1 μg/mL) is added to the wells and incubated at 37° C., 5% CO2. After 24 hours, the plate is centrifuged at 1200 rpm for 3 minutes and the supernatant discarded. Cells are then resuspended in 150 μL (final concentration 7.5 μg/mL) of propidium iodide (PI) in PBS and incubated at 37° C., 5% CO2 for 15 minutes. After 15 minutes, cells are analysed by flow cytometry (BD accuri) using the FL3 window. The % viability is calculated as the % of cells that are PI negative in the test wells normalised to the DMSO control.

| Structure (SMILES) | IC50 (PBMCs) [nM] | % Viability at 1 μg/mL (Jurkat cells) [%] | % Viability at 5 μg/mL (Jurkat cells) [%] | % Viability at 20 μg/mL (Jurkat cells) [%] |
| --- | --- | --- | --- | --- |
| C#Cc1cc(Nc2ncc3cc(-c4cc(C(=O)Nc5cc(C(C)(C)C)cc(NS(C)(=O)=O)c5OC)ccc4C)ccc3n2)cc(C(=O)NCCOCCOCCOC)c1 [14(g), N-(5-(tert-Butyl)-2-methoxy-3-(methylsulfonamido)phenyl)-3-(2-((3-ethynyl-5-((2-(2-(2-methoxyethoxy)ethoxy)ethyl)carbamoyl)phenyl)amino)quinazolin-6-yl)-4-methylbenzamide] | 17.3 | 110.1 | 75.5 | 65.4 |
| COc1c(NC(=O)c2ccc(C)c(-c3ccc4nc(Nc5cccc(CP(C)(C)=O)c5)ncc4c3)c2)cc(C(C)(C)C)cc1NS(C)(=O)=O [14(i), N-(5-(tert-Butyl)-2-methoxy-3-(methylsulfonamido)phenyl)-3-(2-((3-((dimethylphosphoryl)methyl)phenyl)amino)quinazolin-6-yl)-4-methylbenzamide] | 6.9 | 69.8 | 8.4 | 2.1 |
| COCCOCCOCCOc1cc(F)cc(Nc2ncc3cc(-c4cc(C(=O)Nc5cc(C(C)(C)C)cc(NS(C)(=O)=O)c5OC)ccc4C)ccc3n2)c1 [14(l), N-(5-(tert-Butyl)-2-methoxy-3-(methylsulfonamido)phenyl)-3-(2-((3-fluoro-5-(2-(2-(2-methoxyethoxy)ethoxy)ethoxy)phenyl)amino)quinazolin-6-yl)-4-methylbenzamide] | 16.6 |  |  |  |
| C#Cc1cc(Nc2ncc3cc(-c4cc(C(=O)Nc5cc(C(C)(C)C)cc(NS(C)(=O)=O)c5OC)ccc4C)ccc3n2)cc(C(=O)NCCOCCOC)c1 [14(m), N-(5-(tert-Butyl)-2-methoxy-3-(methylsulfonamido)phenyl)-3-(2-((3-ethynyl-5-((2-(2-methoxyethoxy)ethyl)carbamoyl)phenyl)amino)quinazolin-6-yl)-4-methylbenzamide] | 10.4 |  |  |  |
| C#Cc1cc(Nc2ncc3cc(-c4cc(C(=O)Nc5cc(C(C)(C)C)cc(NS(C)(=O)=O)c5OC)ccc4C)ccc3n2)cc(C(=O)NCCOC)c1 [14(n), N-(5-(tert-Butyl)-2-methoxy-3-(methylsulfonamido)phenyl)-3-(2-((3-ethynyl-5-((2-methoxyethyl)carbamoyl)phenyl)amino)quinazolin-6-yl)-4-methylbenzamide] | 11 |  |  |  |
| COc1cc(Nc2ncc3cc(-c4cc(C(=O)Nc5cc(C(C)(C)C)cc(NS(C)(=O)=O)c5OC)ccc4C)ccc3n2)cc(C(=O)O)c1 [14(o), 3-((6-(5-((5-(tert-Butyl)-2-methoxy-3-(methylsulfonamido)phenyl)carbamoyl)-2-methylphenyl)quinazolin-2-yl)amino)-5-methoxybenzoic acid] | 28.4 |  |  |  |
| COCCOCCOCCNC(=O)c1ccc(Nc2ncc3cc(-c4cc(C(=O)Nc5cc(C(C)(C)C)cc(NS(C)(=O)=O)c5OC)ccc4C)ccc3n2)cc1OC [14(p), 4-((6-(5-((5-(tert-Butyl)-2-methoxy-3-(methylsulfonamido)phenyl)carbamoyl)-2-methylphenyl)quinazolin-2-yl)amino)-2-methoxy-N-(2-(2-(2-methoxyethoxy)ethoxy)ethyl)benzamide] | 7.5 |  |  |  |
| COc1c(NC(=O)c2ccc(C)c(-c3ccc4nc(Nc5cccc(N=S(C)(C)=O)c5)ncc4c3)c2)cc(C(C)(C)C)cc1NS(C)(=O)=O [14(q), N-(5-(tert-Butyl)-2-methoxy-3-(methylsulfonamido)phenyl)-3-(2-((3-((dimethyl(oxo)-I6-sulfanylidene)amino)phenyl)amino)quinazolin-6-yl)-4-methylbenzamide] | 6.1 |  |  |  |
| COCCOCCOCCOc1cc(Nc2ncc3cc(-c4cc(C(=O)Nc5cc(C(C)(C)C)cc(NS(C)(=O)=O)c5OC)ccc4C)ccc3n2)cc(OC(F)(F)F)c1 [14(r), N-(5-(tert-Butyl)-2-methoxy-3-(methylsulfonamido)phenyl)-3-(2-((3-(2-(2-(2-methoxy-ethoxy)ethoxy)ethoxy)-5-(trifluoromethoxy)phenyl)amino)quinazolin-6-yl)-4-methylbenzamide] | 49.1 |  |  |  |
| COCCOCCOCCOc1cc(Nc2ncc3cc(-c4cc(C(=O)Nc5cc(C(C)(C)C)cc(NS(C)(=O)=O)c5OC)ccc4C)ccc3n2)cc(C(F)(F)F)c1 [14(s), N-(5-(tert-Butyl)-2-methoxy-3-(methylsulfonamido)phenyl)-3-(2-((3-(2-(2-(2-methoxyethoxy)ethoxy)ethoxy)-5-(trifluoromethyl)phenyl)amino)quinazolin-6-yl)-4-methylbenzamide] | 35.6 |  |  |  |
| COc1c(NC(=O)c2ccc(C)c(-c3ccc4nc(Nc5ccc(S(C)(=N)=O)cc5)ncc4c3)c2)cc(C(C)(C)C)cc1NS(C)(=O)=O (centres unmarked) [14(t), N-(5-(tert-Butyl)-2-methoxy-3-(methylsulfonamido)phenyl)-4-methyl-3-(2-((4-(S-methylsulfonimidoyl)phenyl)amino)quinazolin-6-yl)benzamide] | 67.6 |  |  |  |
| COc1c(NC(=O)c2ccc(C)c(-c3ccc4nc(Nc5cc(C(=O)NCCN6CCOCC6)cc(C(F)(F)F)c5)ncc4c3)c2)cc(C(C)(C)C)cc1NS(C)(=O)=O [14(u), N-(5-(tert-Butyl)-2-methoxy-3-(methylsulfonamido)phenyl)-4-methyl-3-(2-((3-((2-morpholinoethyl)carbamoyl)-5-(trifluoromethyl)phenyl)amino)quinazolin-6-yl)benzamide] | 20.2 |  |  |  |
| COc1cc(Nc2ncc3cc(-c4cc(C(=O)Nc5cc(C(C)(C)C)cc(NS(C)(=O)=O)c5OC)ccc4C)ccc3n2)ccc1C(=O)NCCOCCOCCO [14(v), 4-((6-(5-((5-(tert-Butyl)-2-methoxy-3-(methylsulfonamido)phenyl)carbamoyl)-2-methylphenyl)quinazolin-2-yl)amino)-N-(2-(2-(2-hydroxyethoxy)ethoxy)ethyl)-2-methoxybenzamide] | 4.4 |  |  |  |
| COCCOCCNC(=O)c1ccc(Nc2ncc3cc(-c4cc(C(=O)Nc5cc(C(C)(C)C)cc(NS(C)(=O)=O)c5OC)ccc4C)ccc3n2)cc1OC [14(w), 4-((6-(5-((5-(tert-Butyl)-2-methoxy-3-(methylsulfonamido)phenyl)carbamoyl)-2-methylphenyl)quinazolin-2-yl)amino)-2-methoxy-N-(2-(2-methoxyethoxy)ethyl)benzamide] | 8.4 |  |  |  |
| COc1cc(Nc2ncc3cc(-c4cc(C(=O)Nc5cc(C(C)(C)C)cc(NS(C)(=O)=O)c5OC)ccc4C)ccc3n2)ccc1C(=O)NCC(CO)(CO)CO [14(x), 4-((6-(5-((5-(tert-Butyl)-2-methoxy-3-(methylsulfonamido)phenyl)carbamoyl)-2-methylphenyl)quinazolin-2-yl)amino)-N-(3-hydroxy-2,2-bis(hydroxymethyl)propyl)-2-methoxybenzamide] | 7.7 |  |  |  |
| COc1cc(Nc2ncc3cc(-c4cc(C(=O)Nc5cc(C(C)(C)C)cc(NS(C)(=O)=O)c5OC)ccc4C)ccc3n2)ccc1C(=O)NCCN1CCCOCC1 [14(y), N-(2-(1,4-Oxazepan-4-yl)ethyl)-4-((6-(5-((5-(tert-butyl)-2-methoxy-3-(methylsulfonamido)-phenyl)carbamoyl)-2-methylphenyl)quinazolin-2-yl)amino)-2-methoxybenzamide] | 4.6 |  |  |  |
| COc1cc(Nc2ncc3cc(-c4cc(C(=O)Nc5cc(C(C)(C)C)cc(NS(C)(=O)=O)c5OC)ccc4C)ccc3n2)ccc1C(=O)NCCN1CCN(C)CC1 [14(z), 4-((6-(5-((5-(tert-Butyl)-2-methoxy-3-(methylsulfonamido)phenyl)carbamoyl)-2-methyl-phenyl)quinazolin-2-yl)amino)-2-methoxy-N-(2-(4-methylpiperazin-1-yl)ethyl)benzamide] | 6 |  |  |  |
| COc1c(NC(=O)c2ccc(C)c(-c3ccc4nc(Nc5ccc(N=S(C)(C)=O)cc5)ncc4c3)c2)cc(C(C)(C)C)cc1NS(C)(=O)=O [Example 7, N-(5-(tert-Butyl)-2-methoxy-3-(methylsulfonamido)phenyl)-3-(2-((4-((dimethyl(oxo)-I6-sulfanylidene)amino)phenyl)amino)quinazolin-6-yl)-4-methylbenzamide] | 3.8 | 79.0 | 54.7 | 49.7 |
| COc1cc(Nc2ncc3cc(-c4cc(C(=O)Nc5cc(C(C)(C)C)cc(NS(C)(=O)=O)c5OC)ccc4C)ccc3n2)ccc1C(=O)NCCCN1CC[S+]([O-])CC1 [Example 11, 4-((6-(5-((5-(tert-Butyl)-2-methoxy-3-(methylsulfonamido)phenyl)carbamoyl)-2-methylphenyl)-quinazolin-2-yl)amino)-2-methoxy-N-(3-(1-oxidothiomorpholino)propyl)benzamide] | 7.6 |  |  |  |
| COc1cc(Nc2ncc3cc(-c4cc(C(=O)Nc5cc(C(C)(C)C)cc(NS(C)(=O)=O)c5OC)ccc4C)ccc3n2)ccc1C(=O)NCCN1CCN(CCO)CC1 [Example 13] | 6.7 |  |  |  |
| COCC(=O)Nc1cc(Oc2ccc(NC(=O)Nc3cc(C(C)(C)C)nn3-c3ccc(C)cc3)c3ccccc23)ccn1 [Reference Compound A, N-(4-(4-(3-(3-tert-butyl-1-p-tolyl-1H-pyrazol-5-yl)ureido)naphthalen-1-yloxy)pyridin-2-yl)-2-methoxyacetamide, reference compound] |  | 23.5 | 18.9 | 17.3 |
